Laboratory results as given in US10316371B2, “Screening methods for identifying specific Staphylococcus aureus inhibitors” (TRANA DISCOVERY, INC., priority 2011, dated 2019).
≈ marks a conversion by molar mass, not a printed value.

Tests used:
Type in all cases: cell-based
[1] = system: SA 158 (Staphylococcus aureus 158); assay: MIC; settings: SA 158, read-out: MIC
Experimental: (§1) The strains included Staphylococcus aureus, Methicillin Resistant (ATCC 33591), Methicillin-Resistant Staphylococcus aureus USA300, Staphylococcus aureus 158, Staphylococcus aureus 22, Staphylococcus aureus 2, Staphylococcus aureus (ATCC 29213), and Staphylococcus aureus 182.
(§2) A series of compounds were evaluated for their activity against drug resistant S. aureus, including MSSA and MRSA strains.

[2] = system: SA 182 (Staphylococcus aureus 182); assay: MIC; settings: SA 182, read-out: MIC
Experimental: as §1, §2

[3] = system: SA 2 (Staphylococcus aureus 2); assay: MIC; settings: SA 2, read-out: MIC
Experimental: as §1, §2

[4] = system: SA 22 (Staphylococcus aureus 22); assay: MIC; settings: SA 22, read-out: MIC
Experimental: as §1, §2

[5] = system: SA 29213 (Staphylococcus aureus (ATCC 29213)); assay: MIC; settings: ATCC29213, SA 29213, read-out: MIC
Experimental: as §1, §2

[6] = system: SA 33591 (Staphylococcus aureus, Methicillin Resistant (ATCC 33591)); assay: MIC; settings: ATCC33591, SA 33591, read-out: MIC
Experimental: as §1, §2

[7] = system: SA USA 300 (Methicillin-Resistant Staphylococcus aureus USA300); assay: MIC; settings: SA USA 300, read-out: MIC
Experimental: as §1, §2

E. faecalis 161651 = assay: MIC; settings: Enterococcus faecalis; E. faecalis 161651; read-out: MIC
Experimental: (§3) The compounds were re-tested against other bacteria, including Staphylococcus epidermidis (ATCC 35984), Staphylococcus epidermidis (MRSE), E. faecium 134529, E. faecium 145494, […], E. faecium 161651, S. pneumoniae 49619, and S. pneumoniae 149389.
as §2

E. faecalis 29212 = assay: MIC; settings: Enterococcus faecalis; E. faecalis 29212; read-out: MIC
Experimental: as §3, §2

E. faecium 134529 = assay: MIC; settings: Enterococcus faecium; E. faecium 134529; read-out: MIC
Experimental: as §3, §2

E. faecium 145494 = assay: MIC; settings: Enterococcus faecium; E. faecium 145494; read-out: MIC
Experimental: as §3, §2

S. epidermidis 35984 = assay: MIC; settings: Staphylococcus epidermidis; S. epidermidis 35984; read-out: MIC
Experimental: as §3, §2

S. epidermidis MRSE 01 = assay: MIC; settings: Staphylococcus epidermidis; S. epidermidis MRSE 01; read-out: MIC
Experimental: as §3, §2

S. pneumoniae 149389 = assay: MIC; settings: Streptococcus pneumoniae; S. pneumoniae 149389; read-out: MIC
Experimental: as §3, §2

S. pneumoniae 49619 = assay: MIC; settings: Streptococcus pneumoniae; S. pneumoniae 49619; read-out: MIC
Experimental: as §3, §2

E. coli ESBL 4 = assay: MIC; settings: Escherichia coli, ESBL4; E. coli ESBL 4; read-out: MIC
K. pneumoniae 700603 = assay: MIC; settings: Klebsiella pneumoniae; K. pneumoniae 700603; read-out: MIC
K. pneumoniae UMM = assay: MIC; settings: Klebsiella pneumoniae; K. pneumoniae UMM; read-out: MIC
S. aureus strain 29213 = assay: Time-kill experiments; settings: for time-kill activity (cidal / static): 8 hrs; for reduction of bacterial counts / reduction of bacterial counts (killing): by 8 hours
Experimental: Two compounds (#880 and #169) were tested in time-kill assays against S. aureus strain 29213. These compounds were then used to attempt to select for resistant variants by passaging at sub-MIC concentrations for 20 passages.
Twenty mL of MH-II media warmed to 37° C. was seeded with log-phase growth S. aureus strain 29213 at 1×10^6 cfu/mL in 50 mL erlenmeyer shake-flasks. Compound was added at 2× and 4× the MIC value. Negative controls (no drug) and positive drug controls (vancomycin at 2× and 4× the MIC) were included in the experiment. Flasks were shaken at 200 rpm and 37° C. Samples were taken at the times indicated (0, 2, 4, 6, 8 and 24 hrs post inoculation) and bacterial loads were quantified by limiting dilution assay.

[8] = system: Staphylococcus aureus strains (ATCC 33591, USA300, 158, 22, 2, ATCC 29213, 182); assay: MIC screening of lead compounds against S. aureus strains; settings: including vancomycin and methicillin resistant strains
Excerpt: A series of lead compounds identified in the in vitro screening were subjected to in vivo screening, to determine their effectiveness against S. aureus. The strains included Staphylococcus aureus, Methicillin Resistant (ATCC 33591), Methicillin-Resistant Staphylococcus aureus USA300, Staphylococcus aureus 158, Staphylococcus aureus 22, Staphylococcus aureus 2, Staphylococcus aureus (ATCC 29213), and Staphylococcus aureus 182.

[9] = system: non-S. aureus bacterial strains (Staph epi, E. faecium, E. faecalis, S. pneumoniae); assay: Re-test against other bacteria; settings: Gm (+) organisms (e.g. Staph epi, E. faecium and E. faecalis)
Excerpt: as §3
In some cases, the compounds were as active, or nearly so, against the non-S. aureus bacterial strains. While not wishing to be bound to a particular theory, it is believed that these compounds function by stabilizing or inhibiting the complex between the mRNA Shine-Dalgarno sequence, and the anti-Shine Delgarno sequence in the ribosome, and inhibit protein translation in this manner, rather than by inhibiting the ASL Arg, and the codon encoding arginine (AGA), which is specific to S. aureus.

Cc1ccc2nc(-c3ccc(NC(=O)CN4CCN(CCO)CC4)cc3)sc2c1 [Compound #169, 2-[4-(2-hydroxyethyl)-1-piperazinyl]-N-[4-(6-methyl-1,3-benzothiazol-2-yl)phenyl]acetamide]
MIC [1]: 128 µg/mL (≈ 312 µM) | MIC [2]: 16 µg/mL (≈ 39 µM) | MIC [3]: 8 µg/mL (≈ 19.5 µM) | MIC [4]: 16 µg/mL (≈ 39 µM) | MIC [5]: 16 µg/mL (≈ 39 µM) | MIC [6]: 32 µg/mL (≈ 77.9 µM) | MIC [7]: 8 µg/mL (≈ 19.5 µM) | MIC (E. faecalis 161651): 16 µg/mL (≈ 39 µM) | MIC (E. faecalis 29212): 64 µg/mL (≈ 156 µM) | MIC (E. faecium 134529): 16 µg/mL (≈ 39 µM) | MIC (E. faecium 145494): 16 µg/mL (≈ 39 µM) | MIC (S. epidermidis 35984): 16 µg/mL (≈ 39 µM) | MIC (S. epidermidis MRSE 01): 16 µg/mL (≈ 39 µM) | MIC (S. pneumoniae 149389): 128 µg/mL (≈ 312 µM) | MIC (S. pneumoniae 49619): 64 µg/mL (≈ 156 µM) | MIC (E. coli ESBL 4): > 128 µg/mL | MIC (K. pneumoniae 700603): > 128 µg/mL | MIC (K. pneumoniae UMM): > 128 µg/mL | time-kill activity (cidal / static) (S. aureus strain 29213; 2× the MIC): static activity | time-kill result by 24 hrs post treatment (S. aureus strain 29213; 2× the MIC, 24 hrs): regrowth of bacteria | reduction of bacterial counts (S. aureus strain 29213; 2× the MIC): 1 log10 | time-kill activity (cidal / static) (S. aureus strain 29213; 4× the MIC): static activity | reduction of bacterial counts (killing) (S. aureus strain 29213; 4× the MIC): 1 log10 | activity on types of S. aureus [8]: showed activity on all types of S. aureus | spectrum of activity [9]: broad spectrum for Gm (+) organisms

Brc1ccc(-c2nc(N3CCNCC3)c3ccccc3n2)cc1 [Compound #880, 2-(4-bromophenyl)-4-(1-piperazinyl)-quinazoline]
MIC [1]: 8 µg/mL (≈ 21.7 µM) | MIC [2]: 8 µg/mL (≈ 21.7 µM) | MIC [3]: 4 µg/mL (≈ 10.8 µM) | MIC [4]: 8 µg/mL (≈ 21.7 µM) | MIC [5]: 8 µg/mL (≈ 21.7 µM) | MIC [6]: 8 µg/mL (≈ 21.7 µM) | MIC [7]: 8 µg/mL (≈ 21.7 µM) | MIC (E. faecalis 161651): 8 µg/mL (≈ 21.7 µM) | MIC (E. faecalis 29212): 8 µg/mL (≈ 21.7 µM) | MIC (E. faecium 134529): 8 µg/mL (≈ 21.7 µM) | MIC (E. faecium 145494): 4 µg/mL (≈ 10.8 µM) | MIC (S. epidermidis 35984): 8 µg/mL (≈ 21.7 µM) | MIC (S. epidermidis MRSE 01): 8 µg/mL (≈ 21.7 µM) | MIC (S. pneumoniae 149389): 32 µg/mL (≈ 86.7 µM) | MIC (S. pneumoniae 49619): 32 µg/mL (≈ 86.7 µM) | MIC (E. coli ESBL 4): 64 µg/mL (≈ 173 µM) | MIC (K. pneumoniae 700603): > 128 µg/mL | MIC (K. pneumoniae UMM): > 128 µg/mL | reduction of bacterial counts (S. aureus strain 29213; 2× the MIC): 2.5 log10 | time-kill activity (cidal / static) (S. aureus strain 29213; 4× the MIC): rapidly cidal | bacterial counts by 24 hrs post treatment (S. aureus strain 29213; 4× the MIC, 24 hrs): below detectable levels | reduction of bacterial counts (killing) (S. aureus strain 29213; 4× the MIC): > 3 log10 | activity on types of S. aureus [8]: showed activity on all types of S. aureus | spectrum of activity [9]: broad spectrum for Gm (+) organisms
